Measured values: patent US20250197428A1, “INHIBITORS OF KIF18A AND USES THEREOF” (ACCENT THERAPEUTICS, INC., priority 2022, published 2025)
Where two headings read alike, the source gives them in different places.

What was measured:
KIF18A = KIF18A (Homo sapiens (Human), UniProt Q8NI77); experiment: KIF18A Biochemical Assay (ATPase, ADP-Glo)
OVCAR-3 cells = experiment: In vitro anti-proliferative activity assay in cancer cell line OVCAR-3 (CellTiter-Glo, 4- or 7-day); type: cell-based; details: Homo sapiens, read-out: OVCAR-3 cellular antiproliferation assay IC50

KIF18A, sequence (Q8NI77 1-367): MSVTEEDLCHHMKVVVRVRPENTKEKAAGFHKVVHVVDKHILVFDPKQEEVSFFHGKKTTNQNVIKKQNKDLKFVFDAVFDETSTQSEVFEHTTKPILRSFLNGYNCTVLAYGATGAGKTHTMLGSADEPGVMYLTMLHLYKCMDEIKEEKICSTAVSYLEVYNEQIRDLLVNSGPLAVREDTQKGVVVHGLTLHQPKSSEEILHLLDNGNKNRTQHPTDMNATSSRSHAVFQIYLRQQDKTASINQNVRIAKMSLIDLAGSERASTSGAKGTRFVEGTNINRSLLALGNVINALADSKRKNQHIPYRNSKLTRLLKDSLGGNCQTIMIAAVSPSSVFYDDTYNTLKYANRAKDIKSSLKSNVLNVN
KIF18A, sequence (P02550 whole entry partner): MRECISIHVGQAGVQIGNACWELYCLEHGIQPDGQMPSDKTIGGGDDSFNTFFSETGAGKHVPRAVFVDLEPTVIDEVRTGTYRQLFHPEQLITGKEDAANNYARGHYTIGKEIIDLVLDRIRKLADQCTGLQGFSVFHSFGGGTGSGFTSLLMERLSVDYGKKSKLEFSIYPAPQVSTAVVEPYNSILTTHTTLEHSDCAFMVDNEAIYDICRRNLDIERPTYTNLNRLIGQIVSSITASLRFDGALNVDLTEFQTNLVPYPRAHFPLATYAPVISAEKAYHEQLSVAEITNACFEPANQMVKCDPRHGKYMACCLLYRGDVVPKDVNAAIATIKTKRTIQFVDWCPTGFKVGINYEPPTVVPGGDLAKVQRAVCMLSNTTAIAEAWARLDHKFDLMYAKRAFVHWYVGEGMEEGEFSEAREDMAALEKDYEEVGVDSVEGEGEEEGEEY
KIF18A, sequence (P02554 whole entry partner): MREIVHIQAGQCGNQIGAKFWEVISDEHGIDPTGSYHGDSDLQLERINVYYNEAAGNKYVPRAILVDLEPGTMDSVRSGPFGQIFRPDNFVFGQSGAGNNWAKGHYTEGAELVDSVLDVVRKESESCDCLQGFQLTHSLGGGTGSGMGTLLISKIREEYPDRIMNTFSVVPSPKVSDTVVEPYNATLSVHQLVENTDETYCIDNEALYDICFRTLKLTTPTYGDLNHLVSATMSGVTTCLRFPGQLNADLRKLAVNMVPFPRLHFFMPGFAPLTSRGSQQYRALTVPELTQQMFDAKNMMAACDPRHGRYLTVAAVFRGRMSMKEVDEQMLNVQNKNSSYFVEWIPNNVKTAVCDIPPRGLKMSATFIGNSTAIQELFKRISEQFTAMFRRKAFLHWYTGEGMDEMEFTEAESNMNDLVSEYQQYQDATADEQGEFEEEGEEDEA

Row | SMILES | IC50 (KIF18A) [nM] | IC50 (OVCAR-3 cells; OVCAR-3, 168 h, 7-day assay) [nM] | IC50 (OVCAR-3 cells; OVCAR-3, 96 h, 4-day assay) [nM] | IC50 (OVCAR-3 cells; OVCAR-3, assay duration not indicated) [nM]
1 | CO[C@@]12CCN(c3cc(NS(=O)(=O)CCO)ccc3C(=O)Nc3cc(C)nc(N4CCC(F)(F)CC4)n3)C[C@@H]1C2 [Example 82] | < 100 | 500 to 1000 | – | –
2 | C[Si]1(C)CCN(c2cc(NS(=O)(=O)NCCO)ccc2C(=O)Nc2cccc(OC[C@H](O)C(F)(F)F)n2)CC1 [Example 126] | < 100 | 100 to 500 | – | –
3 | COC[C@]12CCN(c3cc(NS(=O)(=O)CCO)ccc3C(=O)Nc3cc(C)nc(N4CCC(F)(F)CC4)n3)C[C@H]1C2 (single isomer, unassigned) [Example 49a] | < 100 | 100 to 500 | – | –
4 | Cc1cc(NC(=O)c2ccc(NS(C)(=O)=O)cc2N2CC[C@@]3(C)C[C@H]3C2)nc(N2CCC(F)(F)CC2)n1 [Example 32] | < 100 | – | > 1000 | –
5 | Cc1cc(NC(=O)c2c(F)cc(NS(=O)(=O)CCO)cc2N2CC[C@]3(C)C[C@@H]3C2)nc(N2CCC(F)(F)CC2)n1 (single isomer, unassigned) [Example 31a] | – | 100 to 500 | – | –
6 | CC(C)(CO)Nc1ccc(C(=O)Nc2cccc(S(=O)(=O)C3CCCC3)c2)c(N2CC[Si](C)(C)CC2)n1 [Example 97] | > 1000 | > 1000 | – | –
7 | C[Si]1(C)CCN(c2cc(NS(=O)(=O)CCO)ccc2C(=O)Nc2ccnc(S(=O)(=O)C3CCCC3)n2)CC1 [Example 89] | – | 100 to 500 | – | –
8 | CC1CN(c2cccc(NC(=O)c3ccc(NS(=O)(=O)CCO)cc3N3CC[Si](C)(C)CC3)n2)CCO1 (stereo not drawn) [Example 19] | < 100 | – | < 100 | –
9 | O=C(Nc1ccnc(C2CCC(F)(F)CC2)n1)c1ccc(NS(=O)(=O)CCO)cc1N1CC[C@@]2(C(F)F)C[C@H]2C1 [Example 76] | < 100 | 100 to 500 | – | –
10 | Cc1cc(NC(=O)c2ccc(NS(=O)(=O)NCCO)cc2N2CC[C@]3(C)C[C@@H]3C2)nc(N2CCC(F)(F)CC2)n1 [Example 43] | < 100 | – | > 1000 | –
11 | Cc1cc(NC(=O)c2ccc(NS(=O)(=O)CCO)cc2N2CC[C@@]3(C(F)F)C[C@H]3C2)nc(N2CCC(F)(F)CC2)n1 [Example 59] | < 100 | 100 to 500 | – | –
12 | Cc1cc(NC(=O)c2c(F)cc(NS(=O)(=O)CCO)cc2N2CC[C@]3(C)C[C@@H]3C2)nc(N2CCC(F)(F)CC2)n1 [Example 38] | < 100 | – | – | 100 to 500
13 | Cc1cc(NC(=O)c2cc(F)c(NS(=O)(=O)CCO)cc2N2CC[Si](C)(C)CC2)nc(N2CCC(F)(F)CC2)n1 [Example 103] | < 100 | 100 to 500 | – | –
14 | Cc1cc(NC(=O)c2ccc(NS(=O)(=O)CCO)cc2N2CC[C@@]3(C(C)(F)F)C[C@H]3C2)nc(N2CCC(F)(F)CC2)n1 [Example 80] | 100 to 500 | 100 to 500 | – | –
15 | O=C(Nc1cccc(S(=O)(=O)N2CCC(F)(F)CC2)c1)c1cccnc1N1CCC2CC2C1 (stereo not drawn) [Example 44] | > 1000 | – | – | –
16 | C[Si]1(C)CCN(c2cc(NS(=O)(=O)CCO)ccc2C(=O)Nc2cccc(C3(C(F)(F)F)N=N3)c2)CC1 [Example 87] | < 100 | 100 to 500 | – | –
17 | Cc1cc(NC(=O)c2ccc(NS(=O)(=O)CCO)cc2N2CC[Si](C)(C)CC2)nc(N2CCC(F)(F)CC2)c1F [Example 133] | < 100 | 100 to 500 | – | –
18 | C[Si]1(C)CCN(c2cnccc2C(=O)Nc2cccc(S(=O)(=O)N3CCC(F)(F)CC3)c2)CC1 [Example 27] | > 1000 | – | > 1000 | –
19 | C[Si]1(C)CCN(c2cc(NS(=O)(=O)CCO)c(F)cc2C(=O)Nc2ccnc(N3CCC(F)(F)CC3)n2)CC1 [Example 13] | < 100 | – | 500 to 1000 | –
20 | O=C(Nc1cccc(N2CCC(F)(F)CC2)n1)c1c(F)cc(NS(=O)(=O)CCO)cc1N1CC[C@]2(C(F)F)C[C@@H]2C1 [Example 83] | < 100 | 500 to 1000 | – | –
21 | Cc1cc(NC(=O)c2c(F)cc(NS(=O)(=O)CCO)cc2N2CC[C@@]3(C)C[C@H]3C2)nc(N2CCC(F)(F)CC2)n1 (single isomer, unassigned) [Example 31b] | – | 100 to 500 | – | –
22 | Cc1cc(NC(=O)c2ccc(S(=O)(=O)NCCO)cc2N2CC[C@]3(C(F)F)C[C@@H]3C2)nc(N2CCC(F)(F)CC2)n1 [Example 77] | 100 to 500 | 100 to 500 | – | –
23 | C[Si]1(C)CCN(c2cc(NS(C)(=O)=O)ccc2C(=O)Nc2cccc(OC[C@H](O)C(F)(F)F)n2)CC1 [Example 128] | < 100 | 100 to 500 | – | –
24 | C[C@@]12CCN(c3ncccc3C(=O)Nc3cccc(S(=O)(=O)N4CCC(F)(F)CC4)c3)C[C@@H]1C2 [Example 47] | > 1000 | – | – | –

Row | SMILES | IC50 (KIF18A) [nM] | IC50 (OVCAR-3 cells; OVCAR-3, 168 h, 7-day assay) [nM] | IC50 (OVCAR-3 cells; OVCAR-3, 96 h, 4-day assay) [nM] | IC50 (OVCAR-3 cells; OVCAR-3, assay duration not indicated) [nM]
25 | C[C@]12CCN(c3ncccc3C(=O)Nc3cccc(S(=O)(=O)N4CCC(F)(F)CC4)c3)C[C@H]1C2 [Example 46] | – | – | > 1000 | –
26 | CC(C)(C)NS(=O)(=O)c1cccc(NC(=O)c2ccc(S(=O)(=O)C3(C)COC3)cc2N2CC[Si](C)(C)CC2)c1 [Example 24] | – | – | 100 to 500 | –
27 | C[Si]1(C)CCN(c2cc(NS(=O)(=O)CCO)ccc2C(=O)Nc2cccc(OC[C@H](O)C(F)(F)F)n2)CC1 [Example 122] | < 100 | < 100 | – | –
28 | Cc1cc(NC(=O)c2ccc(NS(=O)(=O)CCO)cc2N2CC[C@]3(C)C[C@@H]3C2)nc(N2CCC(F)(F)CC2)n1 [Example 62] | – | < 100 | – | –
29 | Cc1cc(NC(=O)c2ccc(NS(=O)(=O)C(C)CO)cc2N2CC[Si](C)(C)CC2)nc(N2CC(F)(F)C2)c1 (stereo not drawn) [Example 114] | < 100 | < 100 | – | –
30 | C[Si]1(C)CCN(c2cc(S(=O)(=O)NCCO)ccc2C(=O)Nc2cccc(OCCC(F)(F)F)n2)CC1 [Example 99] | < 100 | < 100 | – | –
31 | C[Si]1(C)CCN(c2cc(NS(=O)(=O)CCO)ccc2C(=O)Nc2ccnc(C3CC3)n2)CC1 [Example 15] | < 100 | – | > 1000 | –
32 | C[Si]1(C)CCN(c2cc(NS(=O)(=O)CCO)cc(F)c2C(=O)Nc2cccc(OC[C@H](O)C(F)(F)F)n2)CC1 [Example 124] | < 100 | 100 to 500 | – | –
33 | CC[Si]1(CC)CCN(c2ncccc2C(=O)Nc2cccc(S(=O)(=O)N3CCC(F)(F)CC3)c2)CC1 [Example 92] | – | > 1000 | – | –
34 | Cc1cc(NC(=O)c2ccc(NS(=O)(=O)CCO)cc2N2CC[C@]3(CO)C[C@@H]3C2)nc(N2CCC(F)(F)CC2)n1 [Example 40] | > 1000 | – | > 1000 | –
35 | Cc1cc(NC(=O)c2ccc(NS(=O)(=O)CCO)cc2N2CC[C@]3(C(F)F)C[C@@H]3C2)nc(OC[C@H](O)C(F)(F)F)n1 [Example 67] | > 1000 | > 1000 | – | –
36 | Cc1cc(NC(=O)c2c(F)cc(NS(=O)(=O)CCO)c(F)c2N2CC[Si](C)(C)CC2)nc(N2CCC(F)(F)CC2)n1 [Example 116] | 500 to 1000 | > 1000 | – | –
37 | Cc1cc(NC(=O)c2ncc(NS(=O)(=O)CCO)nc2N2CC[Si](C)(C)CC2)nc(N2CCC(F)(F)CC2)n1 [Example 105] | > 1000 | > 1000 | – | –
38 | Cc1cc(NC(=O)c2ccc(NS(=O)(=O)CCO)cc2N2CC[C@]3(C(F)F)C[C@@H]3C2)nc(N2CCC(F)(F)CC2)c1 [Example 65] | < 100 | < 100 | – | –
39 | Cc1cc(NC(=O)c2ccc(NS(=O)(=O)CCO)cc2N2CC[C@@]3(C(F)F)C[C@H]3C2)nc(OC[C@H](O)C(F)(F)F)n1 [Example 68] | > 1000 | > 1000 | – | –
40 | Cc1cc(NC(=O)c2ccc(NS(=O)(=O)CCO)cc2N2CCC3(CO)CC3C2)nc(N2CCC(F)(F)CC2)n1 (stereo not drawn) [Example 30, N-(2-(4,4-difluoropiperidin-1-yl)-6-methylpyrimidin-4-yl)-4-((2-hydroxyethyl)sulfonamido)-2-(6-(hydroxymethyl)-3-azabicyclo[4.1.0]heptan-3-yl)benzamide] | 100 to 500 | – | > 1000 | –
41 | Cc1cc(NC(=O)c2ccc(NS(=O)(=O)NCCO)cc2N2CC[C@@]3(C)C[C@H]3C2)nc(N2CCC(F)(F)CC2)n1 [Example 42] | < 100 | – | > 1000 | –
42 | C[Si]1(C)CCN(c2cc(NS(=O)(=O)CCO)ccc2NC(=O)c2ccnc(N3CCC(F)(F)CC3)n2)CC1 [Example 23] | 100 to 500 | – | 100 to 500 | –
43 | O=C(Nc1ccnc(N2CCC(F)(F)CC2)n1)c1ccc2c(cnn2CCO)c1N1CCC2(CC1)CC2 [Example 25] | > 1000 | – | – | –
44 | C[C@H]1CN(c2nccc(C(=O)Nc3ccc(NS(=O)(=O)CCO)cc3N3CC[Si](C)(C)CC3)n2)CCO1 [Example 91] | – | 100 to 500 | – | –
45 | CC12CCN(c3ncccc3C(=O)Nc3cccc(S(=O)(=O)N4CCC(F)(F)CC4)c3)CC1C2 (stereo not drawn) [Example 45] | – | – | > 1000 | –
46 | Cc1cc(NC(=O)c2ccc(NS(=O)(=O)CCO)cc2N2CC[C@@]3(C)C[C@H]3C2)nc(N2CCC(F)(F)CC2)n1 [Example 63] | – | < 100 | – | –
47 | C[Si]1(C)CCN(c2cc(NS(=O)(=O)CCO)c(F)cc2NC(=O)c2cccc(N3CCC(F)(F)CC3)n2)CC1 [Example 95] | – | – | < 100 | –
48 | C[Si]1(C)CCN(c2ncccc2C(=O)Nc2cccc(S(=O)(=O)N3CCC(F)(F)CC3)c2)C1 [Example 93] | – | > 1000 | – | –
